This passage reports TGI and GI50 results from PubChem BioAssay (NCI).

Some test systems named below: NCI-H460 lung; UO-31 renal; NCI-H23 lung; HCC-2998 colon; SW-620 colon; KM12 colon; M14 melanoma; HL-60(TB) leukemia; CAKI-1 renal; SK-OV-3 ovarian.
What all share (assay): NCI-60 cell line screen, 48 h

SMILES strings stand for the structures.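 Step 1: Grow cells in 96-well plates. Step 2: Expose to compound for 48 hours at 5 concentrations. Step 3: Interpolate endpoints linearly; if unreached, use highest concentration. GI50 is the concentration that inhibits growth by half. At the TGI there is no net growth.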

On to `CC(=O)CC(=O)CCCC(=O)Nc1ccc(Cl)cc1C`, for which the TGI in the experiment on NCI-H460 lung, with UO-31 renal, in the experiment with NCI-H23 lung, with HCC-2998 colon, in the experiment on SW-620 colon and with KM12 colon was over 100 µM in each case. The TGI in the experiment with M14 melanoma, with HL-60(TB) leukemia, in the experiment with CAKI-1 renal and in the experiment with SK-OV-3 ovarian was over 100 µM in each case.
In the case of `COc1ccc2c(=O)c([Se]c3coc4cc(OC)ccc4c3=O)coc2c1`, the TGI in the experiment with NCI-H460 lung, with UO-31 renal, with NCI-H23 lung, with HCC-2998 colon, with SW-620 colon and in the experiment with KM12 colon was over 100 µM each time. Further, the TGI with M14 melanoma was 37.5 µM; in the experiment with HL-60(TB) leukemia it was over 100 µM; in the experiment on CAKI-1 renal it was over 100 µM; in the experiment on SK-OV-3 ovarian it was over 100 µM.
On to `CCc1cccc(C(C)CC)c1N=C(NC(=O)c1ccccc1C(=O)NC(=Nc1c(CC)cccc1C(C)CC)SC)SC` (stereo not given), for which the TGI in the experiment on NCI-H460 lung, in the experiment on UO-31 renal, with NCI-H23 lung, in the experiment on HCC-2998 colon, in the experiment on SW-620 colon and with KM12 colon was over 100 µM in each case. In addition, the TGI with M14 melanoma was 44.5 µM; in the experiment with HL-60(TB) leukemia, 51.5 µM; in the experiment on CAKI-1 renal it was over 100 µM; with SK-OV-3 ovarian it was over 100 µM.
For the compound `CCN(CC)CCn1ncc2ccc3c(c(=O)c4cccnc4n3CCN(CC)CC)c21`, the TGI in the experiment with NCI-H460 lung was 2.45 µM; in the experiment with UO-31 renal, over 8.52 µM; in the experiment on NCI-H23 lung it was 3.05 µM; in the experiment on HCC-2998 colon, 2.14 µM; with SW-620 colon, over 6.66 µM; with KM12 colon, 4.01 µM. Moreover, the TGI in the experiment with M14 melanoma is 2.79 µM; in the experiment on HL-60(TB) leukemia it was 2.83 µM; in the experiment on CAKI-1 renal, 9.71 µM; with SK-OV-3 ovarian, over 9.46 µM.
In the case of `CCN1CCC[C@H]1c1cc(O)c2c(c1OC)C[C@H]1C[C@H]3[C@H](N)C(=O)C(C(N)=O)=C(O)[C@@]3(O)C(=O)C1=C2O`, the GI50 was 0.0602 µM in the experiment on NCI-H460 lung; 0.0528 µM in the experiment on UO-31 renal; 0.167 µM with NCI-H23 lung; 0.118 µM with HCC-2998 colon; 0.0536 µM in the experiment with SW-620 colon; 0.0998 µM with KM12 colon. For the same compound, the GI50 is 0.0492 µM in the experiment with M14 melanoma, 0.0379 µM in the experiment on HL-60(TB) leukemia, 0.0293 µM in the experiment with CAKI-1 renal and 0.032 µM with SK-OV-3 ovarian. Moreover, the TGI is 1.9 µM with NCI-H460 lung; 2.93 µM with UO-31 renal; 2.18 µM in the experiment on NCI-H23 lung; 3.01 µM in the experiment on HCC-2998 colon; 3.24 µM in the experiment with SW-620 colon; 13.2 µM with KM12 colon. Besides, the TGI is 1.37 µM with M14 melanoma, 0.238 µM in the experiment with HL-60(TB) leukemia, 0.62 µM in the experiment on CAKI-1 renal and 0.215 µM in the experiment on SK-OV-3 ovarian.
Consider `Cc1cccc(CN(C)c2ccc(CO)c(Cl)c2)c1`, for which the GI50 in the experiment with NCI-H460 lung was 2.04 µM; in the experiment on UO-31 renal it was 11.9 µM; with NCI-H23 lung, 14.6 µM; in the experiment on HCC-2998 colon it was 15.9 µM; with SW-620 colon it was 7.18 µM; with KM12 colon it was 22.5 µM. Moreover, the GI50 is 20.6 µM with M14 melanoma, 23.8 µM in the experiment on HL-60(TB) leukemia, 3.71 µM in the experiment with CAKI-1 renal and 12.6 µM in the experiment with SK-OV-3 ovarian. For the same compound, the TGI is 15.8 µM in the experiment on NCI-H460 lung; 64.3 µM in the experiment with UO-31 renal; over 73.1 µM with NCI-H23 lung; 52.9 µM in the experiment on HCC-2998 colon; over 100 µM in the experiment with SW-620 colon; 72.4 µM in the experiment with KM12 colon. The TGI in the experiment on M14 melanoma is over 65.9 µM; in the experiment on HL-60(TB) leukemia, 82.6 µM; with CAKI-1 renal, 44.3 µM; with SK-OV-3 ovarian it was 46.8 µM.
As for `COc1c(OC(C)=O)cc2c(OC(C)=O)c1CC(C)CC(OC)C(O)C(C)/C=C(\C)C(OC(N)=O)C(OC)/C=C\C=C(/C)C(=O)N2` (stereo not given), the TGI in the experiment on NCI-H460 lung, in the experiment on UO-31 renal, with NCI-H23 lung, in the experiment with HCC-2998 colon, in the experiment with SW-620 colon and in the experiment on KM12 colon was over 100 µM each time. Also, the TGI in the experiment on M14 melanoma was over 100 µM; in the experiment on HL-60(TB) leukemia, over 67.5 µM; in the experiment with CAKI-1 renal it was over 100 µM; in the experiment on SK-OV-3 ovarian it was over 100 µM.
As to `C=C1C(=O)OC2CCCCC3OC3C12` (stereo not given), the TGI in the experiment on NCI-H460 lung is 28.3 µM; in the experiment with UO-31 renal, 28.8 µM; in the experiment with NCI-H23 lung it was 32.6 µM; in the experiment with HCC-2998 colon it was 23.9 µM; in the experiment on SW-620 colon it was 13.3 µM; in the experiment with KM12 colon it was 31.8 µM. Moreover, the TGI came out at 20.4 µM in the experiment with M14 melanoma, 9.72 µM in the experiment with HL-60(TB) leukemia, 9.83 µM with CAKI-1 renal and 32 µM in the experiment on SK-OV-3 ovarian.
Turning to `COc1cc2c(cc1OC)C(CCc1ccc(Cl)cc1)N(C)CC2` (stereo not given), the GI50 in the experiment on NCI-H460 lung is 17.8 µM; with UO-31 renal, 20.6 µM; in the experiment on NCI-H23 lung, 30.1 µM; with HCC-2998 colon it was 16.4 µM; in the experiment on SW-620 colon, 19.3 µM; in the experiment with KM12 colon, 19.5 µM. The GI50 in the experiment with M14 melanoma is 17.3 µM; in the experiment on HL-60(TB) leukemia, 17.2 µM; in the experiment on CAKI-1 renal it was 10.7 µM; in the experiment with SK-OV-3 ovarian, 32.2 µM. For the same compound, the TGI is 40.2 µM in the experiment with NCI-H460 lung; over 100 µM in the experiment with UO-31 renal; over 100 µM in the experiment with NCI-H23 lung; 31.1 µM in the experiment with HCC-2998 colon; 45.4 µM with SW-620 colon; 38.1 µM in the experiment on KM12 colon. The TGI in the experiment with M14 melanoma was 37.7 µM; in the experiment with HL-60(TB) leukemia, 44.3 µM; in the experiment with CAKI-1 renal it was 31.7 µM; in the experiment on SK-OV-3 ovarian, over 100 µM.
As to `Nc1ccc2c(c1)C(=O)c1ccc(F)cc1-2`, the TGI in the experiment on NCI-H460 lung, in the experiment with UO-31 renal, in the experiment with NCI-H23 lung, in the experiment on HCC-2998 colon, in the experiment on SW-620 colon and with KM12 colon was over 100 µM in each case. Moreover, the TGI with M14 melanoma, with HL-60(TB) leukemia, in the experiment on CAKI-1 renal and in the experiment with SK-OV-3 ovarian was over 100 µM each time.
Consider `O=C1NC(=NCc2cccs2)SC1Cc1ccc2ncccc2c1` (stereo not given), for which the GI50 with NCI-H460 lung is 11.8 µM; with UO-31 renal, over 23.6 µM; in the experiment with NCI-H23 lung, over 25 µM; in the experiment with HCC-2998 colon, over 25 µM; in the experiment on SW-620 colon, 9.16 µM; in the experiment with KM12 colon, 15.6 µM. For the same compound, the GI50 in the experiment with M14 melanoma is 11 µM; in the experiment with HL-60(TB) leukemia, 11.8 µM; in the experiment on CAKI-1 renal, 19.5 µM; in the experiment on SK-OV-3 ovarian it was over 25 µM. Further, the TGI with NCI-H460 lung, with UO-31 renal, with NCI-H23 lung, with HCC-2998 colon, with SW-620 colon and in the experiment with KM12 colon was over 25 µM throughout. Further, the TGI in the experiment on M14 melanoma, in the experiment with HL-60(TB) leukemia, in the experiment with CAKI-1 renal and in the experiment on SK-OV-3 ovarian was over 25 µM in each case.
Consider `O=C(CCCn1c2c(sc3ncccc32)c(=O)n2nnc(-c3ccccc3)c12)NCCc1cnc[nH]1`, for which the GI50 with NCI-H460 lung is 3.66 µM; with UO-31 renal, 11.9 µM; with NCI-H23 lung, 14.5 µM; with HCC-2998 colon, 2.03 µM; in the experiment with SW-620 colon it was 0.331 µM; with KM12 colon, 1.89 µM. For the same compound, the GI50 was 3.5 µM in the experiment with M14 melanoma, 1.41 µM in the experiment with HL-60(TB) leukemia, 2.89 µM in the experiment on CAKI-1 renal and 14.3 µM in the experiment with SK-OV-3 ovarian. Moreover, the TGI in the experiment on NCI-H460 lung came to 13.1 µM; in the experiment with UO-31 renal, 26.7 µM; in the experiment with NCI-H23 lung it was 32.2 µM; in the experiment on HCC-2998 colon, 29.9 µM; with SW-620 colon it was 14.4 µM; in the experiment on KM12 colon, 24 µM. The TGI stood at 19.4 µM in the experiment on M14 melanoma, 4.76 µM in the experiment on HL-60(TB) leukemia, 14.4 µM with CAKI-1 renal and 27.7 µM with SK-OV-3 ovarian.
`COC(=O)[C@]12CC[C@@H](C)[C@H](C)[C@@H]1C1=CC[C@@H]3[C@@]4(C)C[C@@H](OC(=O)c5ccco5)[C@H](O)[C@@](C)(CO)[C@@H]4[C@H](O)C[C@@]3(C)[C@]1(C)CC2`: the GI50 in the experiment with NCI-H460 lung was 1.97 µM; in the experiment on UO-31 renal, 2.02 µM; with NCI-H23 lung it was 2.42 µM; with HCC-2998 colon, 1.95 µM; in the experiment with SW-620 colon, 1.79 µM; in the experiment on KM12 colon it was 2.62 µM. Besides, the GI50 was 2.26 µM in the experiment on M14 melanoma, 2.08 µM in the experiment on HL-60(TB) leukemia, 2.99 µM in the experiment with CAKI-1 renal and 3.95 µM in the experiment on SK-OV-3 ovarian. Further, the TGI worked out at 3.87 µM in the experiment on NCI-H460 lung; 7.42 µM in the experiment on UO-31 renal; 6.66 µM in the experiment on NCI-H23 lung; 3.73 µM with HCC-2998 colon; 3.54 µM with SW-620 colon; 6.77 µM with KM12 colon. In addition, the TGI in the experiment on M14 melanoma is 4.74 µM; with HL-60(TB) leukemia it was 5.46 µM; in the experiment on CAKI-1 renal, 10.9 µM; with SK-OV-3 ovarian, 11.9 µM.
`O=C1Cc2cc(CCn3ccnc3)c(Cl)cc2N1`: the GI50 is 16.1 µM with NCI-H460 lung; 58 µM in the experiment with UO-31 renal; 40.8 µM in the experiment with NCI-H23 lung; 32.2 µM with HCC-2998 colon; 5.02 µM in the experiment on SW-620 colon; 3.58 µM with KM12 colon. Further, the GI50 in the experiment with M14 melanoma was 3.46 µM; in the experiment on HL-60(TB) leukemia, 63.2 µM; in the experiment on CAKI-1 renal, 6.32 µM; with SK-OV-3 ovarian it was 18.1 µM. For the same compound, the TGI with NCI-H460 lung is over 100 µM; in the experiment with UO-31 renal it was over 100 µM; in the experiment on NCI-H23 lung, over 100 µM; with HCC-2998 colon, over 100 µM; in the experiment with SW-620 colon it was over 100 µM; in the experiment on KM12 colon, 98.4 µM. The TGI was 39.8 µM with M14 melanoma, over 100 µM in the experiment with HL-60(TB) leukemia, over 100 µM with CAKI-1 renal and over 100 µM with SK-OV-3 ovarian.
